# Measured values: ChEMBL document CHEMBL4649992, “Discovery of I-BRD9, a Selective Cell Active Chemical Probe for Bromodomain Containing Protein 9 Inhibition” (J Med Chem, 2016)
# What was measured:
# [1] = target: Protein polybromo-1 (Homo sapiens) (UniProt Q86U86); conditions: Compound concentration 10.0 uM, Protein concentration 2.0 uM
# Peregrin (Homo sapiens) [2] = target: T1, Peregrin (Homo sapiens) (UniProt P55201); assay: Alphascreen assay. Domain start/stop: M626-G740; conditions: Compound concentration 4.0 uM, Protein concentration 50.0 uM
# T1 sequence (whole entry): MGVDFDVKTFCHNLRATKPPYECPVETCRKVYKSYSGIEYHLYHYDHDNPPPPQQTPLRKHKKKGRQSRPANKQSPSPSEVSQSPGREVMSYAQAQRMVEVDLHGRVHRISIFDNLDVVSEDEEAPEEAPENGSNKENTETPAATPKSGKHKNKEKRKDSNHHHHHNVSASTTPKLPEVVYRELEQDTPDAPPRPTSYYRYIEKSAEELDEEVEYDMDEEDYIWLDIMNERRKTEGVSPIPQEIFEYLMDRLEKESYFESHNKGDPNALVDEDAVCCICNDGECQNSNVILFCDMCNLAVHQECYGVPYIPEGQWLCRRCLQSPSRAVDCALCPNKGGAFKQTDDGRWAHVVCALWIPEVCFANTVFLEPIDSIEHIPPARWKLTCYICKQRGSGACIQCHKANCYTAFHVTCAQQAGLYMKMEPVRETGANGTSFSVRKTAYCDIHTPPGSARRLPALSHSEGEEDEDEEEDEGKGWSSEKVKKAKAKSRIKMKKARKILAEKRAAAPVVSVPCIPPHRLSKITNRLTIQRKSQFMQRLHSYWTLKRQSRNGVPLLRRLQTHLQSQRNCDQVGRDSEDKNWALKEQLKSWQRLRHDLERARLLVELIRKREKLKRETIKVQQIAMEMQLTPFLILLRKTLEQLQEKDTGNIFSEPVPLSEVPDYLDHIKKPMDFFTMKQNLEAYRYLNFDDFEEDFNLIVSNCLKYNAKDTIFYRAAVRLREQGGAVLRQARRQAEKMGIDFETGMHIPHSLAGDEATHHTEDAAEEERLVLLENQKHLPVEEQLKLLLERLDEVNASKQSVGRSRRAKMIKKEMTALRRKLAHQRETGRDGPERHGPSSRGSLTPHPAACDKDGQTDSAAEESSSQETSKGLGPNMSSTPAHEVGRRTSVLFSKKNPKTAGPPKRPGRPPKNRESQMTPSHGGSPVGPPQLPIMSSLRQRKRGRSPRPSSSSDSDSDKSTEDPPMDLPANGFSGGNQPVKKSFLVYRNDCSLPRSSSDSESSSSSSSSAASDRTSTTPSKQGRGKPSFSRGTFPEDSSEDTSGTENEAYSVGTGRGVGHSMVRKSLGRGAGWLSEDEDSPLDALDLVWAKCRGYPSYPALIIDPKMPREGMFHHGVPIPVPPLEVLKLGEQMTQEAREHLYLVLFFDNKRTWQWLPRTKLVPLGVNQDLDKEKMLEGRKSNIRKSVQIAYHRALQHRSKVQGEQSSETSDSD
# [3] = target: Tyrosine-protein kinase BAZ1B (Homo sapiens) (UniProt Q9UIG0); conditions: Compound concentration 10.0 uM, Protein concentration 2.0 uM
# [4] = target: Bromodomain-containing protein 2 (Homo sapiens) (UniProt P25440); conditions: Compound concentration 10.0 uM, Protein concentration 2.0 uM
# [5] = target: Bromodomain adjacent to zinc finger domain protein 2B (Homo sapiens) (UniProt Q9UIF8); conditions: Compound concentration 10.0 uM, Protein concentration 2.0 uM
# [6] = target: Bromodomain adjacent to zinc finger domain protein 1A (Homo sapiens) (UniProt Q9NRL2); conditions: Compound concentration 10.0 uM, Protein concentration 2.0 uM
# [7] = target: Bromodomain and WD repeat-containing protein 3 (Homo sapiens) (UniProt Q6RI45); conditions: Compound concentration 10.0 uM, Protein concentration 2.0 uM
# [8] = target: Histone acetyltransferase KAT2A (Homo sapiens) (UniProt Q92830); conditions: Compound concentration 10.0 uM, Protein concentration 2.0 uM
# [9] = target: Nucleosome-remodeling factor subunit BPTF (Homo sapiens) (UniProt Q12830); conditions: Compound concentration 10.0 uM, Protein concentration 2.0 uM
# [10] = target: Chromatin remodeling regulator CECR2 (Homo sapiens) (UniProt Q9BXF3); conditions: Protein concentration 19.0 uM
# Chain of Chromatin remodeling regulator CECR2 (Homo sapiens) (Q9BXF3 whole entry, looked up): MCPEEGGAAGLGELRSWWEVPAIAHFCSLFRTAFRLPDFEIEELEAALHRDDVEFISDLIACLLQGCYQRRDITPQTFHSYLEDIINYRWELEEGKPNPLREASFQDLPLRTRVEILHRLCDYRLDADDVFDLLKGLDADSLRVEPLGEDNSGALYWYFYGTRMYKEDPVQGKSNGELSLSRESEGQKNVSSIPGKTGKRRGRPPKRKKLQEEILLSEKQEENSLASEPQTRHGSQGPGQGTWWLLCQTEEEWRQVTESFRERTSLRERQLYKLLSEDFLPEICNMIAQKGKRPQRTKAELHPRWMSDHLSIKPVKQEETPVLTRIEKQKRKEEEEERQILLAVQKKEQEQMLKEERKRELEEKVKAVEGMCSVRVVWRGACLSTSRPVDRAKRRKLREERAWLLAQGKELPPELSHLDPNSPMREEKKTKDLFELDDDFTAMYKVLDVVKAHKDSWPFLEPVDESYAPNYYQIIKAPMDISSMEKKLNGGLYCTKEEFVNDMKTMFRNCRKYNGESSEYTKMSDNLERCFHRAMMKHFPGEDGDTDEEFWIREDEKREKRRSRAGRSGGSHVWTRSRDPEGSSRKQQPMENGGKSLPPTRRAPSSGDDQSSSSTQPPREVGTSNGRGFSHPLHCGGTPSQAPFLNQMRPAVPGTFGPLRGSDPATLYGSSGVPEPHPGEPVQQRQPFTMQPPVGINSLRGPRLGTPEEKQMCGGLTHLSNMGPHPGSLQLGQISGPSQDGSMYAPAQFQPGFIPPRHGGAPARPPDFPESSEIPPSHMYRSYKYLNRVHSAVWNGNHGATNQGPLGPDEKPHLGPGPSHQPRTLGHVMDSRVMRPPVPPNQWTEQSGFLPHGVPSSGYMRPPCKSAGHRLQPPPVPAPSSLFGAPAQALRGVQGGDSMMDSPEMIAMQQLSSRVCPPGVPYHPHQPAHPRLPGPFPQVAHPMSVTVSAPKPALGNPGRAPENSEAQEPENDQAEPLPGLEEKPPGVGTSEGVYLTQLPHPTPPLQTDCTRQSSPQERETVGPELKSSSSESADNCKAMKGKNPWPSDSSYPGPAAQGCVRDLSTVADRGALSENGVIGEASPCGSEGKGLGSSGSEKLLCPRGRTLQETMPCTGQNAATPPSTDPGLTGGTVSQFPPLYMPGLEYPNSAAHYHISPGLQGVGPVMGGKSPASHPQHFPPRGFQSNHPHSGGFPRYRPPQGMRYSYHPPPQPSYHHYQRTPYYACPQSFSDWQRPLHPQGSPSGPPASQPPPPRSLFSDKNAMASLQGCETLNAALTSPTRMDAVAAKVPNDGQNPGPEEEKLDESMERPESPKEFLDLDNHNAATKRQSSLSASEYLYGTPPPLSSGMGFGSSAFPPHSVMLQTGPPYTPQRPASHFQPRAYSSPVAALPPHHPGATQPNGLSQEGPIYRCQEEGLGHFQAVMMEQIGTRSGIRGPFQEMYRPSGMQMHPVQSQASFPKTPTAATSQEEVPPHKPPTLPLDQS
# [11] = target: Transcription initiation factor TFIID subunit 1 (Homo sapiens) (UniProt P21675); conditions: Compound concentration 10.0 uM, Protein concentration 2.0 uM
# [12] = target: Bromodomain adjacent to zinc finger domain protein 2A (Homo sapiens) (UniProt Q9UIF9); conditions: Compound concentration 10.0 uM, Protein concentration 2.0 uM
# [13] = target: ATPase family AAA domain-containing protein 2B (Homo sapiens) (UniProt Q9ULI0); conditions: Compound concentration 10.0 uM, Protein concentration 2.0 uM
# [14] = target: Transcription intermediary factor 1-alpha (Homo sapiens) (UniProt O15164); conditions: Compound concentration 10.0 uM, Protein concentration 2.0 uM
# [15] = target: Transcription intermediary factor 1-alpha (Homo sapiens) (UniProt O15164); conditions: Compound concentration 10.0 uM, Protein concentration 2.0 uM; remark: listed apart in the source
# [16] = target: Chromatin remodeling regulator CECR2 (Homo sapiens) (UniProt Q9BXF3); conditions: Compound concentration 10.0 uM, Protein concentration 2.0 uM
# [17] = target: Bromodomain testis-specific protein (Homo sapiens) (UniProt Q58F21); conditions: Compound concentration 10.0 uM, Protein concentration 2.0 uM
# [18] = target: Transcription initiation factor TFIID subunit 1-like (Homo sapiens) (UniProt Q8IZX4); conditions: Compound concentration 10.0 uM, Protein concentration 2.0 uM
# [19] = target: ATPase family AAA domain-containing protein 2 (Homo sapiens) (UniProt Q6PL18); conditions: Compound concentration 10.0 uM, Protein concentration 2.0 uM
# [20] = target: Protein polybromo-1 (Homo sapiens) (UniProt Q86U86); conditions: Compound concentration 10.0 uM, Protein concentration 2.0 uM; remark: listed apart in the source
# [21] = target: Nuclear body protein SP140 (Homo sapiens) (UniProt Q13342); conditions: Compound concentration 10.0 uM, Protein concentration 2.0 uM
# [22] = target: Histone-lysine N-methyltransferase 2A (Homo sapiens) (UniProt Q03164); conditions: Compound concentration 10.0 uM, Protein concentration 2.0 uM
# [23] = target: Protein polybromo-1 (Homo sapiens) (UniProt Q86U86); conditions: Compound concentration 10.0 uM, Protein concentration 2.0 uM; remark: listed apart in the source
# [24] = target: Bromodomain-containing protein 2 (Homo sapiens) (UniProt P25440); conditions: Compound concentration 10.0 uM, Protein concentration 2.0 uM; remark: listed apart in the source
# [25] = target: Bromodomain-containing protein 7 (Homo sapiens) (UniProt Q9NPI1); conditions: Compound concentration 10.0 uM, Protein concentration 2.0 uM
# [26] = target: PH-interacting protein (Homo sapiens) (UniProt Q8WWQ0); conditions: Compound concentration 10.0 uM, Protein concentration 2.0 uM
# Peregrin (Homo sapiens) [27] = target: T1, Peregrin (Homo sapiens); conditions: Compound concentration 10.0 uM, Protein concentration 2.0 uM
# [28] = target: Transcription initiation factor TFIID subunit 1-like (Homo sapiens) (UniProt Q8IZX4); conditions: Compound concentration 10.0 uM, Protein concentration 2.0 uM; remark: listed apart in the source
# [29] = target: Bromodomain-containing protein 1 (Homo sapiens) (UniProt O95696); conditions: Compound concentration 10.0 uM, Protein concentration 2.0 uM
# [30] = target: Bromodomain-containing protein 9 (Homo sapiens) (UniProt Q9H8M2); conditions: Compound concentration 10.0 uM, Protein concentration 2.0 uM
# Chain of Bromodomain-containing protein 9 (Homo sapiens) (Q9H8M2 whole entry): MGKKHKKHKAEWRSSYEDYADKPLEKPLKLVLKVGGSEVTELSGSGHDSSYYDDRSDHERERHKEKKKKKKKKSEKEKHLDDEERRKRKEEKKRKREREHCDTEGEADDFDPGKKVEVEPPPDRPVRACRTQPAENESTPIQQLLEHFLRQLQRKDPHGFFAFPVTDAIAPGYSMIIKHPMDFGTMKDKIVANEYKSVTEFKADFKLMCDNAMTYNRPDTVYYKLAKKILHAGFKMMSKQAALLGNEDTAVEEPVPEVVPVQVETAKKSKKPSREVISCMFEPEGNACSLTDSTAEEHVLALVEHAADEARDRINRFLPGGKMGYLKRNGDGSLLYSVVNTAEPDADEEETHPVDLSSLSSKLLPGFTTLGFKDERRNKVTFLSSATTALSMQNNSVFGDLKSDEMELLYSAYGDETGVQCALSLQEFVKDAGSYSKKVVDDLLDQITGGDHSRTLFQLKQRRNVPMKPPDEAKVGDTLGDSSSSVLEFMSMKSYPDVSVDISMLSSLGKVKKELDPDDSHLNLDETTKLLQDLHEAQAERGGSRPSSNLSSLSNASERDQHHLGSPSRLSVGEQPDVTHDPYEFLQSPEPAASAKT
# [31] = target: CREB-binding protein (Homo sapiens) (UniProt Q92793); conditions: Compound concentration 10.0 uM, Protein concentration 2.0 uM
# [32] = target: Protein polybromo-1 (Homo sapiens) (UniProt Q86U86); conditions: Compound concentration 10.0 uM, Protein concentration 2.0 uM; remark: listed apart in the source
# [33] = target: Transcription initiation factor TFIID subunit 1 (Homo sapiens) (UniProt P21675); conditions: Compound concentration 10.0 uM, Protein concentration 2.0 uM; remark: listed apart in the source
# [34] = target: Histone acetyltransferase p300 (Homo sapiens) (UniProt Q09472); conditions: Compound concentration 10.0 uM, Protein concentration 2.0 uM
# [35] = target: Transcription intermediary factor 1-beta (Homo sapiens) (UniProt Q13263); conditions: Compound concentration 10.0 uM, Protein concentration 2.0 uM
# [36] = target: Bromodomain testis-specific protein (Homo sapiens) (UniProt Q58F21); conditions: Compound concentration 10.0 uM, Protein concentration 2.0 uM; remark: listed apart in the source
# [37] = target: Histone-lysine N-methyltransferase ASH1L (Homo sapiens) (UniProt Q9NR48); conditions: Compound concentration 10.0 uM, Protein concentration 2.0 uM
# [38] = target: Bromodomain-containing protein 4 (Homo sapiens) (UniProt O60885); conditions: Compound concentration 10.0 uM, Protein concentration 2.0 uM
# [39] = target: Bromodomain-containing protein 4 (Homo sapiens) (UniProt O60885); conditions: Compound concentration 10.0 uM, Protein concentration 2.0 uM; remark: listed apart in the source
# Peregrin (Homo sapiens) [40] = target: T1, Peregrin (Homo sapiens); conditions: Compound concentration 10.0 uM, Protein concentration 2.0 uM; remark: listed apart in the source
# [41] = target: SWI/SNF-related matrix-associated actin-dependent regulator of chromatin subfamily A member 4 (Homo sapiens) (UniProt P51532); conditions: Compound concentration 10.0 uM, Protein concentration 2.0 uM
# [42] = target: Histone acetyltransferase KAT2B (Homo sapiens) (UniProt Q92831); conditions: Compound concentration 10.0 uM, Protein concentration 2.0 uM
# [43] = target: Bromodomain-containing protein 9 (Homo sapiens) (UniProt Q9H8M2); assay: Alphascreen assay. Domain start/stop: L14-Q143; conditions: Compound concentration 0.25 uM, Protein concentration 5.0 uM
# [44] = target: Bromodomain and WD repeat-containing protein 1 (Homo sapiens) (UniProt Q9NSI6); conditions: Compound concentration 10.0 uM, Protein concentration 2.0 uM
# [45] = target: Nuclear body protein SP140-like protein (Homo sapiens) (UniProt Q9H930); conditions: Compound concentration 10.0 uM, Protein concentration 2.0 uM
# Chain of Nuclear body protein SP140-like protein (Homo sapiens) (Q9H930 whole entry): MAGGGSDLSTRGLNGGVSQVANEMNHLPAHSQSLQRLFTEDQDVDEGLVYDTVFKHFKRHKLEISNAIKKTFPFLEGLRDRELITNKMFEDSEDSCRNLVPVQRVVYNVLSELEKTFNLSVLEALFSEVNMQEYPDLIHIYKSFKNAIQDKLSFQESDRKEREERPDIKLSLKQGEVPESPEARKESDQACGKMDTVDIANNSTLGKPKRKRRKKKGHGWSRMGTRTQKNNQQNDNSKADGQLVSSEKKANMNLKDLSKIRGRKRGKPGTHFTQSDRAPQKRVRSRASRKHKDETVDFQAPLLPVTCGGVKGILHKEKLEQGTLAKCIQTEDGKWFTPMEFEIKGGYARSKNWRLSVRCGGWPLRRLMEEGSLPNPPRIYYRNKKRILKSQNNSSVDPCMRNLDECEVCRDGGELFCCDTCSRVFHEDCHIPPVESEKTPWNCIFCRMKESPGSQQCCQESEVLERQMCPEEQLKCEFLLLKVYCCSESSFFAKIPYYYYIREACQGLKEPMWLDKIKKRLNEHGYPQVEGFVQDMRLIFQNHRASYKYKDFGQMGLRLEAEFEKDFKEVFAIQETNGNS
# [46] = target: Bromodomain and PHD finger-containing protein 3 (Homo sapiens) (UniProt Q9ULD4); conditions: Compound concentration 10.0 uM, Protein concentration 2.0 uM
# [47] = target: Bromodomain-containing protein 3 (Homo sapiens) (UniProt Q15059); conditions: Compound concentration 10.0 uM, Protein concentration 2.0 uM
# Chain of Bromodomain-containing protein 3 (Homo sapiens) (Q15059 2-726 limits assumed): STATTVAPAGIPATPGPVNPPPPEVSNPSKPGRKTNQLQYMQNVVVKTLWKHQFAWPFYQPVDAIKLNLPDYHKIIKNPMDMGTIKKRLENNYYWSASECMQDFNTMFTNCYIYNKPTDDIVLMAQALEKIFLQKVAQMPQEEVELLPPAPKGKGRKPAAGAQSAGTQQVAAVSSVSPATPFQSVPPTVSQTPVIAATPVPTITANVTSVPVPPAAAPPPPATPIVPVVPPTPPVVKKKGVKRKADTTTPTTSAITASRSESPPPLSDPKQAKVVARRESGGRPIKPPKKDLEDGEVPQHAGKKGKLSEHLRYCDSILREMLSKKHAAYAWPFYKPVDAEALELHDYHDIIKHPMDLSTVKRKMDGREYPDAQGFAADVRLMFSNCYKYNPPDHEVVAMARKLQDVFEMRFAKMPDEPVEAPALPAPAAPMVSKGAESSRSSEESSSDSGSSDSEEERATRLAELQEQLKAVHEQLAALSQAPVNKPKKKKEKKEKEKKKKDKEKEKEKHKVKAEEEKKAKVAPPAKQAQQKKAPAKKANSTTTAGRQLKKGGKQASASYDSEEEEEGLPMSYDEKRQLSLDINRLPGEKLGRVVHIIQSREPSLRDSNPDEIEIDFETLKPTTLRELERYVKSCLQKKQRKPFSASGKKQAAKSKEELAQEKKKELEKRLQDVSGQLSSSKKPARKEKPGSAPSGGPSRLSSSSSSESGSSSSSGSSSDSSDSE
# [48] = target: Bromodomain-containing protein 3 (Homo sapiens) (UniProt Q15059); conditions: Compound concentration 10.0 uM, Protein concentration 2.0 uM; remark: listed apart in the source
# [49] = target: Protein polybromo-1 (Homo sapiens) (UniProt Q86U86); conditions: Compound concentration 10.0 uM, Protein concentration 2.0 uM; remark: listed apart in the source
# [50] = target: Protein polybromo-1 (Homo sapiens) (UniProt Q86U86); conditions: Compound concentration 10.0 uM, Protein concentration 2.0 uM; remark: listed apart in the source
# [51] = target: SWI/SNF-related matrix-associated actin-dependent regulator of chromatin subfamily A member 2 (Homo sapiens) (UniProt P51531); conditions: Compound concentration 10.0 uM, Protein concentration 2.0 uM
# [52] = target: Nucleosome-remodeling factor subunit BPTF (Homo sapiens) (UniProt Q12830)
# Description: Alphascreen assay. Domain start/stop: S2791-H2911
# Chain of Protein polybromo-1 (Homo sapiens) (Q86U86 whole entry): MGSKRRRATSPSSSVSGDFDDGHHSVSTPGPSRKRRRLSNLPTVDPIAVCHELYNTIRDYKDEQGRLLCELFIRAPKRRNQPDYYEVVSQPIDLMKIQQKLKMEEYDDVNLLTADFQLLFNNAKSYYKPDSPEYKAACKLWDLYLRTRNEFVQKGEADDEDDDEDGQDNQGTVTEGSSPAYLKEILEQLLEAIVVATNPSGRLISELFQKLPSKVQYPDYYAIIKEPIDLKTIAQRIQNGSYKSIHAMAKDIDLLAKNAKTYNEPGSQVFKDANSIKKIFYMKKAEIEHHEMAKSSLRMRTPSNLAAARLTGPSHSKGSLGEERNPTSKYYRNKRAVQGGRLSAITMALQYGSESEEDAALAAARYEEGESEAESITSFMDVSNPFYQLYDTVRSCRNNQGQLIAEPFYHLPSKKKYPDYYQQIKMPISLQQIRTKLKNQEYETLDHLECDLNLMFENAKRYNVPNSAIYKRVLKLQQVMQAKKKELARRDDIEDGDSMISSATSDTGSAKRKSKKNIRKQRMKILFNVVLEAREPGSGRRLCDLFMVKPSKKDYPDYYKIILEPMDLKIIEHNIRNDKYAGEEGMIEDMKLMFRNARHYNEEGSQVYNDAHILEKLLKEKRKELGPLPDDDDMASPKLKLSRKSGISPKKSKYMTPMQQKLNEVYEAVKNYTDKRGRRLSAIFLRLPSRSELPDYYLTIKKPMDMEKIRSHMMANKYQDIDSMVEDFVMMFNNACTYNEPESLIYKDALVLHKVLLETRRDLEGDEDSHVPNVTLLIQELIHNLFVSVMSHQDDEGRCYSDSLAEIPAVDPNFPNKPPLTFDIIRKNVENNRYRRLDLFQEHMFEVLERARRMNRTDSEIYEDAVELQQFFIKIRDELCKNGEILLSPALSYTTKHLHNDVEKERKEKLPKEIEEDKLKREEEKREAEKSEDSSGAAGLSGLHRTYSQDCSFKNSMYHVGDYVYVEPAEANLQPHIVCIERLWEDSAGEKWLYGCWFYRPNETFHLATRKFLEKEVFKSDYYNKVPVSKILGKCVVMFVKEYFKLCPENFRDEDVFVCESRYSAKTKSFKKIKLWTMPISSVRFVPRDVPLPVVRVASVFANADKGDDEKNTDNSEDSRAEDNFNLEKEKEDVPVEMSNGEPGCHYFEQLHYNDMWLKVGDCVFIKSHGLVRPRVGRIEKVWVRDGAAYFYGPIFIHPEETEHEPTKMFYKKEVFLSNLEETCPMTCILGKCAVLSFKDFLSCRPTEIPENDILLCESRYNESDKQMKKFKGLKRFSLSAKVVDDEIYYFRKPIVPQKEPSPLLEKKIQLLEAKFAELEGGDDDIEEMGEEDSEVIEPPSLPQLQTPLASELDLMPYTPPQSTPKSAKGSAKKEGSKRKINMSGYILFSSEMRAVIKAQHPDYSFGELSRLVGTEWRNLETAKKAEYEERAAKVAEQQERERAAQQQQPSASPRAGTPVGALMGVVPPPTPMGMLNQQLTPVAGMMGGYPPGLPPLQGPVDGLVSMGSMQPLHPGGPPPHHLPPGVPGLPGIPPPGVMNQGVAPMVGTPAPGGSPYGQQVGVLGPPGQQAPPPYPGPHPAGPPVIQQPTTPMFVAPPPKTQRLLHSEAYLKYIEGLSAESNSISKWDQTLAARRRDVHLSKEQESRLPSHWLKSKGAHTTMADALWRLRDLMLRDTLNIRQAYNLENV
smiles,measurement,setting,value
CCn1cc(-c2cccc(C(F)(F)F)c2)c2sc(C(=N)NC3CCS(=O)(=O)CC3)cc2c1=O,ΔTm,[1],0.54 °C
same,inhibition,Peregrin (Homo sapiens) [2],18.8%
same,ΔTm,[3],0.68 °C
same,ΔTm,[4],2.54 °C
same,ΔTm,[5],0.84 °C
same,ΔTm,[6],0.42 °C
same,ΔTm,[7],2.31 °C
same,ΔTm,[8],1.26 °C
same,ΔTm,[9],0.58 °C
same,inhibition,[10]; Compound concentration 0.25 uM,4.99%
same,inhibition,[10]; Compound concentration 4.0 uM,99.5%
same,ΔTm,[11],0.5 °C
same,ΔTm,[12],0.67 °C
same,ΔTm,[13],0.97 °C
same,ΔTm,[14],1.86 °C
same,ΔTm,[15],1.09 °C
same,ΔTm,[16],9.43 °C
same,ΔTm,[17],1.74 °C
same,ΔTm,[18],0.59 °C
same,ΔTm,[19],0.99 °C
same,ΔTm,[20],0.69 °C
same,ΔTm,[21],1.36 °C
same,ΔTm,[22],0.44 °C
same,ΔTm,[23],0.74 °C
same,ΔTm,[24],1.39 °C
same,ΔTm,[25],11.1 °C
same,ΔTm,[26],0.95 °C
same,ΔTm,Peregrin (Homo sapiens) [27],2.66 °C
same,ΔTm,[28],0.9 °C
same,ΔTm,[29],0.98 °C
same,ΔTm,[30],14.4 °C
same,ΔTm,[31],5.94 °C
same,ΔTm,[32],0.36 °C
same,ΔTm,[33],0.49 °C
same,ΔTm,[34],6.07 °C
same,ΔTm,[35],0.66 °C
same,ΔTm,[36],1.37 °C
same,ΔTm,[37],1.17 °C
same,ΔTm,[38],1.92 °C
same,ΔTm,[39],3.6 °C
same,ΔTm,Peregrin (Homo sapiens) [40],1.32 °C
same,ΔTm,[41],0.68 °C
same,ΔTm,[42],0.36 °C
same,inhibition,[43],94.3%
same,ΔTm,[44],0.71 °C
same,ΔTm,[45],3 °C
same,ΔTm,[46],1.17 °C
same,ΔTm,[47],1.79 °C
same,ΔTm,[48],2.77 °C
same,ΔTm,[49],0.63 °C
same,ΔTm,[50],0.36 °C
same,ΔTm,[51],0.72 °C
same,inhibition,"[52]; Compound concentration 0.25 uM, Protein concentration 20.0 uM",-2.87%
same,inhibition,"[52]; Compound concentration 4.0 uM, Protein concentration 19.0 uM",-1.93%
